# ChEMBL document CHEMBL3885861, “Open TG-GATES”
# Organism: Rattus norvegicus
# Experiment: Open TG-GATES - Regimen: Daily Repeat
# Type: toxicity, organism-based, Sprague-Dawley
# Parameters: regimen Daily Repeat, gender Male, age 6 weeks
# Details: in vivo, po, 100 mg/kg, route gavage, dose level High; for APTT / Bas / Eos / Fbg / Hb / Ht / Lym / MCH / MCHC / MCV / Mono / Neu / PT / Plat / RBC / Ret / WBC: tissue Blood; for KIDNEY_L / KIDNEY_R / KIDNEY_TOTAL: tissue Kidney; for LIVER: tissue Liver; for A/G / ALP / ALT / AST / BUN / CRE / Ca / Cl / DBIL / GLC / IP / K / LDH / Na / PL / RALB / TBIL / TC / TG / TP / gamma-GTP: tissue Plasma
smiles,measurement,setting,value
O=C1CN(/N=C/c2ccc([N+](=O)[O-])o2)C(=O)N1 [NITROFURANTOIN],TERMINAL_BW,"72 h, time 3 day",241.1 g
same,APTT,"72 h, time 3 day",17.7 s
same,Bas,"72 h, time 3 day",0%
same,Eos,"72 h, time 3 day",1%
same,Fbg,"72 h, time 3 day",231 mg/dL
same,Hb,"72 h, time 3 day",13.4 g/dL
same,Ht,"72 h, time 3 day",37.9%
same,Lym,"72 h, time 3 day",77.8%
same,MCH,"72 h, time 3 day",21.4 pg
same,MCHC,"72 h, time 3 day",35.5%
same,MCV,"72 h, time 3 day",60.5 fL
same,Mono,"72 h, time 3 day",3.2%
same,Neu,"72 h, time 3 day",15.2%
same,PT,"72 h, time 3 day",12.4 s
same,Plat,"72 h, time 3 day",130.5 x10_4/uL
same,RBC,"72 h, time 3 day",628.2 x10_4/ul
same,Ret,"72 h, time 3 day",4.9%
same,WBC,"72 h, time 3 day",70.5 x10_2/uL
same,KIDNEY_L,"72 h, time 3 day",1.1 g
same,KIDNEY_R,"72 h, time 3 day",1.1 g
same,KIDNEY_TOTAL,"72 h, time 3 day",2.2 g
same,LIVER,"72 h, time 3 day",11.7 g
same,A/G,"72 h, time 3 day",1.5
same,ALP,"72 h, time 3 day",909.6 IU/L
same,ALT,"72 h, time 3 day",35.2 IU/L
same,AST,"72 h, time 3 day",67.8 IU/L
same,BUN,"72 h, time 3 day",14.2 mg/dL
same,CRE,"72 h, time 3 day",0.4 mg/dL
same,Ca,"72 h, time 3 day",10.6 mg/dL
same,Cl,"72 h, time 3 day",100.6 meq/L
same,DBIL,"72 h, time 3 day",0.1 mg/dL
same,GLC,"72 h, time 3 day",209.4 mg/dL
same,IP,"72 h, time 3 day",7.1 mg/dL
same,K,"72 h, time 3 day",3.9 meq/L
same,LDH,"72 h, time 3 day",220.2 IU/L
same,Na,"72 h, time 3 day",139.6 meq/L
same,PL,"72 h, time 3 day",153.8 mg/dL
same,RALB,"72 h, time 3 day",3.3 g/dL
same,TBIL,"72 h, time 3 day",0.1 mg/dL
same,TC,"72 h, time 3 day",75 mg/dL
same,TG,"72 h, time 3 day",110.8 mg/dL
same,TP,"72 h, time 3 day",5.4 g/dL
same,gamma-GTP,"72 h, time 3 day",1 IU/L
same,TERMINAL_BW,"[…], time 7 day",266.8 g
same,TERMINAL_BW,"[…], time 14 day",314.4 g
same,TERMINAL_BW,"[…], time 28 day",380.6 g
same,APTT,"[…], time 7 day",18.4 s
same,Bas,"[…], time 7 day",0%
same,Eos,"[…], time 7 day",1%
same,Fbg,"[…], time 7 day",217.8 mg/dL
same,Hb,"[…], time 7 day",13.5 g/dL
same,Ht,"[…], time 7 day",38.1%
same,Lym,"[…], time 7 day",82.6%
same,MCH,"[…], time 7 day",21.6 pg
same,MCHC,"[…], time 7 day",35.4%
same,MCV,"[…], time 7 day",61.1 fL
same,Mono,"[…], time 7 day",2.2%
same,Neu,"[…], time 7 day",13.2%
same,PT,"[…], time 7 day",12.8 s
same,Plat,"[…], time 7 day",124 x10_4/uL
same,RBC,"[…], time 7 day",624.8 x10_4/ul
same,Ret,"[…], time 7 day",5.1%
same,WBC,"[…], time 7 day",120.6 x10_2/uL
same,APTT,"[…], time 14 day",19.8 s
same,Bas,"[…], time 14 day",0%
same,Eos,"[…], time 14 day",0.8%
same,Fbg,"[…], time 14 day",225.4 mg/dL
same,Hb,"[…], time 14 day",14.2 g/dL
same,Ht,"[…], time 14 day",40.7%
same,Lym,"[…], time 14 day",81.8%
same,MCH,"[…], time 14 day",19.8 pg
same,MCHC,"[…], time 14 day",34.8%
same,MCV,"[…], time 14 day",56.9 fL
same,Mono,"[…], time 14 day",2.2%
same,Neu,"[…], time 14 day",14.4%
same,PT,"[…], time 14 day",12.4 s
same,Plat,"[…], time 14 day",133.3 x10_4/uL
same,RBC,"[…], time 14 day",717.2 x10_4/ul
same,Ret,"[…], time 14 day",3.9%
same,WBC,"[…], time 14 day",115.5 x10_2/uL
same,APTT,"[…], time 28 day",20.5 s
same,Bas,"[…], time 28 day",0%
same,Eos,"[…], time 28 day",1%
same,Fbg,"[…], time 28 day",216.2 mg/dL
same,Hb,"[…], time 28 day",14.7 g/dL
same,Ht,"[…], time 28 day",42.6%
same,Lym,"[…], time 28 day",83.8%
same,MCH,"[…], time 28 day",18.9 pg
same,MCHC,"[…], time 28 day",34.6%
same,MCV,"[…], time 28 day",54.7 fL
same,Mono,"[…], time 28 day",2.4%
same,Neu,"[…], time 28 day",11.4%
same,PT,"[…], time 28 day",12.6 s
same,Plat,"[…], time 28 day",106 x10_4/uL
same,RBC,"[…], time 28 day",780.2 x10_4/ul
same,Ret,"[…], time 28 day",3.2%
same,WBC,"[…], time 28 day",143.7 x10_2/uL
same,KIDNEY_L,"[…], time 7 day",1.2 g
same,KIDNEY_R,"[…], time 7 day",1.2 g
same,KIDNEY_TOTAL,"[…], time 7 day",2.5 g
same,KIDNEY_L,"[…], time 14 day",1.4 g
same,KIDNEY_R,"[…], time 14 day",1.4 g
same,KIDNEY_TOTAL,"[…], time 14 day",2.8 g
same,KIDNEY_L,"[…], time 28 day",1.7 g
same,KIDNEY_R,"[…], time 28 day",1.7 g
same,KIDNEY_TOTAL,"[…], time 28 day",3.3 g
same,LIVER,"[…], time 7 day",12.6 g
same,LIVER,"[…], time 14 day",14.5 g
same,LIVER,"[…], time 28 day",16.2 g
same,A/G,"[…], time 7 day",1.5
same,ALP,"[…], time 7 day",995.4 IU/L
same,ALT,"[…], time 7 day",31.2 IU/L
same,AST,"[…], time 7 day",63.8 IU/L
same,BUN,"[…], time 7 day",16 mg/dL
same,CRE,"[…], time 7 day",0.4 mg/dL
same,Ca,"[…], time 7 day",10.8 mg/dL
same,Cl,"[…], time 7 day",102.2 meq/L
same,DBIL,"[…], time 7 day",0.1 mg/dL
same,GLC,"[…], time 7 day",187 mg/dL
same,IP,"[…], time 7 day",7 mg/dL
same,K,"[…], time 7 day",4.1 meq/L
same,LDH,"[…], time 7 day",218.8 IU/L
same,Na,"[…], time 7 day",140.4 meq/L
same,PL,"[…], time 7 day",142.4 mg/dL
same,RALB,"[…], time 7 day",3.4 g/dL
same,TBIL,"[…], time 7 day",0.2 mg/dL
same,TC,"[…], time 7 day",70.2 mg/dL
same,TG,"[…], time 7 day",111 mg/dL
same,TP,"[…], time 7 day",5.7 g/dL
same,gamma-GTP,"[…], time 7 day",1 IU/L
same,A/G,"[…], time 14 day",1.4
same,ALP,"[…], time 14 day",864.2 IU/L
same,ALT,"[…], time 14 day",34.8 IU/L
same,AST,"[…], time 14 day",74 IU/L
same,BUN,"[…], time 14 day",15.4 mg/dL
same,CRE,"[…], time 14 day",0.4 mg/dL
same,Ca,"[…], time 14 day",10.3 mg/dL
same,Cl,"[…], time 14 day",102.2 meq/L
same,DBIL,"[…], time 14 day",0.084 mg/dL
same,GLC,"[…], time 14 day",214.8 mg/dL
same,IP,"[…], time 14 day",6.6 mg/dL
same,K,"[…], time 14 day",3.5 meq/L
same,LDH,"[…], time 14 day",208.8 IU/L
same,Na,"[…], time 14 day",140.8 meq/L
same,PL,"[…], time 14 day",158.8 mg/dL
same,RALB,"[…], time 14 day",3.4 g/dL
same,TBIL,"[…], time 14 day",0.1 mg/dL
same,TC,"[…], time 14 day",79.2 mg/dL
same,TG,"[…], time 14 day",110 mg/dL
same,TP,"[…], time 14 day",6 g/dL
same,gamma-GTP,"[…], time 14 day",1.6 IU/L
same,A/G,"[…], time 28 day",1.5
same,ALP,"[…], time 28 day",573.8 IU/L
same,ALT,"[…], time 28 day",35.4 IU/L
same,AST,"[…], time 28 day",63.8 IU/L
same,BUN,"[…], time 28 day",15 mg/dL
same,CRE,"[…], time 28 day",0.5 mg/dL
same,Ca,"[…], time 28 day",10.3 mg/dL
same,Cl,"[…], time 28 day",104 meq/L
same,DBIL,"[…], time 28 day",0.1 mg/dL
same,GLC,"[…], time 28 day",218.6 mg/dL
same,IP,"[…], time 28 day",6 mg/dL
same,K,"[…], time 28 day",3.7 meq/L
same,LDH,"[…], time 28 day",159.4 IU/L
same,Na,"[…], time 28 day",141.2 meq/L
same,PL,"[…], time 28 day",155.2 mg/dL
same,RALB,"[…], time 28 day",3.6 g/dL
same,TBIL,"[…], time 28 day",0.2 mg/dL
same,TC,"[…], time 28 day",75.6 mg/dL
same,TG,"[…], time 28 day",109.8 mg/dL
same,TP,"[…], time 28 day",6 g/dL
same,gamma-GTP,"[…], time 28 day",0.8 IU/L
